Measured values from a melting point compilation (Tetko et al.; mined from patent text by program, amines drawn as free bases though some values may be those of a salt).

| SMILES | melting point [°C] |
| --- | --- |
| CC(C)(C)NC(=O)[C@@H]1CCCN1C(=O)[C@@H](O)[C@H](Cc1ccccc1)NC(=O)[C@H](CC(N)=O)NC(=O)OC(C)(C)C | 113 to 115 |
| CCCc1c(OCCCSc2c(F)cccc2C(=O)CCC(=O)O)ccc(C(C)=O)c1O | 115 to 116 |
| CNS(=O)(=O)c1ccc([N+](=O)[O-])cc1[N+](=O)[O-] | 155 |
| COc1ccc(CSc2nnc(-c3ccc4[nH]ncc4c3)o2)cc1 | 204 to 205 |
| CN1CCC(C(=O)N2CCC(c3[nH]nc4c3C(=O)c3c(NC(=O)NN5CCOCC5)cccc3-4)CC2)CC1 | 148 to 150 |
| Cc1cn([C@H]2C=C[C@@H](O)C2)c(=O)nc1-n1cncn1 (racemic) | 143 to 146 |
| COCCN1CC(C(=O)OC)N(S(=O)(=O)c2ccc(OC)cc2)Cc2ccccc21 (configuration not stated) | 86 to 90 |
| CN(CCCNC(=O)c1ccccc1)CCCc1c[nH]c2ccccc12 | 73 to 74 |
| CN(C(=O)CN(C(=O)CN1C(=O)c2ccccc2C1=O)c1ccccc1Cl)c1ccccc1 | 168 |
| COC(=O)c1cccc2nc(OC)n(Cc3ccc(-c4ccccc4C#N)cc3)c12 | 149 to 150 |
| CNC(=S)NCCCCC(NC(=O)C(Cc1cccc2ccccc12)Cc1cccc2ccccc12)C(=O)NC(CC(C)C)C(O)C(=O)OC(C)C (configuration not stated) | 93 to 95 |
| CC1(C)Cc2ccccc2CC(C)(C)C1O | 66 to 68 |
| COC(=O)C1COc2ccccc2C1 (configuration not stated) | 83 to 84 |
| NS(=O)(=O)c1ccccc1CCl | 156 to 158 |
| C1CCC2NC3NC4CCCCC4NC3NC2C1 (configuration not stated) | 148 to 155 |
| CCc1cc(N)cc(CC)n1 | 133 to 137 |
| CN(C)CCCNC(=O)[C@@H](Cc1ccc(-c2ccccc2)cc1)NC(=O)CC(C)(C)CC(=O)O | 84 to 92 |
| CC1CC(c2c(S(C)(=O)=O)ccc(C(=O)O)c2Cl)=NO1 (configuration not stated) | 173 to 178 |
| Cc1nc(-n2cnn(CCO)c2=O)sc1C(=O)NCc1cccnc1 | 201 to 202 |
| COc1cc(Nc2c(C#N)cnc3ccsc23)c(Cl)cc1Cl | 208 to 210 |
| COC(=O)Cc1ccc(OCCNC(=O)C2Cc3ccccc3N2S(=O)(=O)c2ccc(-c3cc(C(F)(F)F)ccc3F)cc2)cc1 (configuration not stated) | 52 to 55 |

| SMILES | melting point [°C] |
| --- | --- |
| Cc1c(C)c2c(c(C)c1OCc1ccccc1)CC[C@@](C)(CCO)O2 | 55 to 56 |
| O=C1C(=Cc2ccccc2)CS(=O)(=O)CC1=Cc1ccccc1 | 201 to 203 |
| CCn1nc(C(F)(F)F)c(CS(=O)(=O)C2=NOC(C)(CCl)C2)c1OC (configuration not stated) | 139 to 140 |
| CCN(CC)c1ccc2nc3c4ccccc4c(=Nc4ncc(Cl)cc4Cl)cc-3oc2c1 | 192 to 193 |
| O=C1CC(Cl)C(=O)N1C1CCCCC1 (configuration not stated) | 63 to 64 |
| Cc1cccc(OCCCN2CCC(OC(c3ccccc3)c3ccccc3)CC2)c1NS(C)(=O)=O | 132 |
| COc1ncc(C(=O)Nc2c(F)cncc2F)cc1OC1CCCC1 | 210 to 211 |
| CC1C(=O)C2CCCCC2N2CCc3ccccc3C12 (configuration not stated) | 144 to 148 |
| C=C(OCCCC)c1ccc(NC(C)=O)nc1 | 55 to 58 |
| COc1ccc(-c2c(NC(C)(C)Cc3ccccc3)c(=O)c2=O)cc1 | 150 to 151 |
| CN(C(=O)Nc1c(F)cc(F)cc1CCc1cc(C(C)(C)C)c(O)c(C(C)(C)C)c1)C1CCN(Cc2ccccc2)CC1 | 187 to 191 |
| CC(C)(C)C1=CC(O)(C(F)(F)F)C(=O)C(C(C)(C)C)=C1 (configuration not stated) | 58 to 61 |
| Cc1nc(SC(=N)N)[nH]c1C | 283 to 285 |
| CC=CC(=O)c1ccc(CCCCNC(C)=O)cc1 | 64 to 66 |
| C[C@H](CC(F)(F)F)[C@@H](CO)NS(=O)(=O)c1ccc(Cl)s1 | 132 to 133 |
| NS(=O)(=O)c1ccc(-n2nc(C(F)(F)F)cc2-c2ccc(OS(=O)(=O)C(F)(F)F)c(Cl)c2)cn1 | 118 to 120 |
| CCN(Cc1ccc(C(=O)O)cc1)c1cc(Br)ccc1OCc1ccccc1 | 94.5 to 95 |
| CC(=O)NCCOC(=O)C(Oc1ccc(F)c(C(F)(F)F)c1)c1ccc(F)cc1 (configuration not stated) | 100 |
| CN1C=CCC(C(=O)NCCc2c[nH]c3ccccc23)=C1 | 40 to 70 |
| O=C(N[C@@H](Cc1ccc(-c2c(O)cccc2O)cc1)C(=O)O)c1c(Cl)cccc1Cl | 238 |
| CCCOc1ncc(C(C)=O)cc1-c1nc2c(CC)n(C3CN(C(C)C)C3)nc2c(=O)[nH]1 | 163 to 164 |

| SMILES | melting point [°C] |
| --- | --- |
| CCOC(=O)Oc1cc2occ(C(=O)O)c(=O)c2cc1OC(=O)OCC | 107 to 109 |
| CCCCCCCCCCCCC1CC(=O)CCC1=O (configuration not stated) | 73 |
| O=c1oc(=Cc2ccccc2)c(=Cc2ccccc2)o1 | 115 |
| CC(C)c1cccc(CCC(O)CC2CCCCC2)c1NC(=O)CC1c2ccccc2Oc2ccccc21 (configuration not stated) | 148 |
| O=C(O)COCC(=O)OCC1CN(C(=O)Oc2ccccc2)CCC1c1ccc(F)cc1 (configuration not stated) | 144 to 146 |
| O=C(O)c1ccc(C(=O)NCCc2ccccc2)cc1 | 237 to 238 |
| COc1cccc2c1nc(-c1c(F)cccc1F)n2Cc1c(F)cccc1F | 154 to 155 |
| CCCCCCCCCCNC(=O)c1ccc(N(CC(=O)O)CC(=O)O)cc1 | 155 to 157 |
| CC(=C(c1ccc(F)cc1)c1ccc(F)cc1)c1nnnn1C | 146 to 147 |
| CC(C)C[C@H](NC(=O)N1CCOCC1)C(=O)N[C@@H](CCc1ccccc1)C(=O)c1oc(-c2ccccc2)nc1-c1ccccc1 | 83 to 85 |
| O=C(C(=Cc1ccc(Cl)cc1)c1ccc(Cl)cc1)c1ccc(O)cc1 | 132 to 136 |
| Fc1ccc(F)c(COc2cccnc2NC(=S)Nc2ccc(Cl)cc2)c1F | 174 to 176 |
| COC(=O)C1(c2c(F)cccc2F)Nc2ccccc2N1Cc1c(F)cccc1F (configuration not stated) | 185 to 186 |
| CSC(=NC(=O)c1ccccc1)N1CC=C(c2cccc(C(F)(F)F)c2)n2ncc(C(N)=O)c21 | 172 to 175 |
| Cc1cc(C(N)=O)ncc1C(SCCC=C(F)F)c1c(F)ccc(F)c1F (configuration not stated) | 97 to 98 |
| CCC(C)(C)c1ccc2nc(-c3ccc([N+](=O)[O-])cc3)oc2c1 | 147 to 148 |
| COc1cc(C)nc(NC(=O)NS(=O)(=O)c2cccc3c2OCCO3)n1 | 203 to 205 |
| CCOC(=O)CCCSc1nnc(S)s1 | 107 to 108 |
| COC(=O)c1cccc([N+](=O)[O-])c1C | 64.2 to 65.5 |
| CC(C)C[C@H]1CN(Cc2ccccc2)C[C@@H]1C(=O)O | 236 to 239 |

The remaining lines, values ahead:

| melting point [°C] | SMILES |
| --- | --- |
| 191 to 193 | CC(=O)c1cc2c(s1)CCC1CC(=O)N(c3ccc(C)cc3)N=C21 (configuration not stated) |
| 114 to 117 | CC(=O)N1CCC(n2nc(-c3c(-c4ccccc4)nn4ccccc34)ccc2=O)CC1 |
| 178 | Cc1ccc(-c2nc3ccc(O)cc3n2Cc2ccccc2C(F)(F)F)cc1C |
| 186 to 189 | O=C(Cc1csc(-c2cnccn2)n1)NC1CCN(Cc2ccc(Cl)c(Cl)c2)CC1 |
| 196 to 197 | CC(C)(C)OC(=O)CCc1ccc(-c2nc(=O)c3ccccc3s2)nc1C#N |
| 98 to 100 | CCOc1cc(Cc2ccc(Cl)cc2Cl)nc(-c2ccc3c(n2)CCCC3)n1 |
| 114 to 117 | CCC(CC)OC(=O)N1CCC(c2nc3cc(-c4ccc(-n5cnnn5)cc4F)ccc3o2)CC1 |
| > 320 | COc1ccc(C=Cc2nc3c([nH]2)c(=O)n(C)c(=O)n3C)cc1 |
| 276 to 278 | O=C(O)c1ccc2c(c1)S(=O)(=O)c1ccc(Cl)cc1C=C2 |
| 234 to 237 | NC(=O)Cc1c(C(=O)c2ccccc2)[nH]c2cc(Cl)ccc12 |
| 161 to 162 | COc1ccc2c(c1)C(NCCCCc1ncc(Br)cc1C)=NS2(=O)=O |
| 113 to 116 | Cc1cccc(NC(=O)CN2CCN(c3ncccn3)CC2)c1 |
| 81 to 84 | COc1ccc(-c2cc(Cc3ccc(OC)c(OC4CCCC4)c3)cn2-c2ccc(S(N)(=O)=O)cc2)cc1 |
| 226 to 228 | CC(=O)c1ccc(OCCCCCOc2ccc3c(=O)cc(C(=O)O)oc3c2)cc1O |
| 153 | Cn1c2ccccc2c2c3c(ccc21)C(=O)OC3=O |
| 72 to 75 | COC(=O)c1cc2c(n(Cc3ccc(C#N)cc3)c1=O)CCCCCC2 |
| 97 to 98 | COc1cc(OC)cc(N2CCN(C(=O)Nc3cc(-c4ccccn4)nc4ccccc34)CC2)c1 |
| 119 to 123 | CCCN(C)CCOc1ccc(-n2ccc(OCc3ccc(Cl)cn3)cc2=O)cc1 |

| melting point [°C] | SMILES |
| --- | --- |
| 83 to 85 | Cc1ccc(-n2nc(C(N)=O)nc2-c2ccccc2)cc1COCCC(C)C |
| 245 to 247 | COc1ccc2c(c1)C(=O)N(c1ccc3nc(C)ncc3c1)C2 |
| 281 | COc1c(-c2ccc(O)c(O)c2)oc2cc(O)ccc2c1=O |
| 187 | COc1ccc(-c2ccnc(-c3cn(C)c(=O)n3-c3ccc(C(C)(C)C#N)cc3)c2)cn1 |
| 153 to 155 | O=C1CCCc2cc(O)ccc21 |
| 175 | CCCCc1nc(Cl)c(C(=O)O)n1Cc1ccc(-c2ccccc2I)cc1 |
| 217 to 219 | O=C(Cc1ccc2ccccc2c1)N[C@H]1C[C@H](C(=O)O)Nc2cc(Cl)cc(Cl)c21 (relative stereo) |
| 162 to 163 | COCc1ccc(N2CCN(Cc3c[nH]c4ncccc34)CC2)cc1 |
| 147 to 149 | COc1ccc(CC2SC(=O)NC2=O)cc1NC(=O)Cc1ccc(C(F)(F)F)cc1 (configuration not stated) |
| 113 | CCN(CC)C(=O)c1cc2ccccc2c(-c2ccc(C)cc2)n1 |
| 135 to 136 | COc1ccc2c3c(c(=O)oc2c1)CN(CCc1ccccc1)CC3 |
| 151 to 153 | COc1ccc2c(c1)N(C1=CCCN1C1=NCCC1)c1ccccc1S2 |
| 120 to 121 | COc1ccc2c(=O)c3ccc(O)c(OC)c3oc2c1 |
| 163 to 164 | Cc1oncc1C(=O)N1CCC[C@H](c2nc(-c3cc4ccccc4[nH]3)no2)C1 |
| 265 | Cc1cccc(C2(O)CCN(c3ccc(O)nn3)CC2)c1 |
| 196 | Cc1cccc(-c2nc(O)cc(-c3ccccc3Cl)n2)n1 |
| 144 to 145 | COC1(c2csc(S(=O)(=O)c3ccc4c(c3)CC/C4=N\O)c2)CCOCC1 |
